# Literature values, collected in patent US20220273628A1, “EFFECTS OF LYSERGIC ACID DIETHYLAMIDE (LSD) AND OF LSD ANALOGS TO ASSIST PSY[…] G[…] DISORDER OR OTHER ANXIETY NOT RELATED TO LIFE-T[…]” (Universitätsspital Basel, priority 2021, published 2022).
# Legend:
# 5-HT2A receptor = 5-HT2A receptor (Homo sapiens, UniProt P28223); conditions: cited from earlier work
# [1] = tested on: patients with treatment-resistant depression; conditions: 12 patients, cited from earlier work
# Sequence of 5-HT2A receptor (P28223 whole entry): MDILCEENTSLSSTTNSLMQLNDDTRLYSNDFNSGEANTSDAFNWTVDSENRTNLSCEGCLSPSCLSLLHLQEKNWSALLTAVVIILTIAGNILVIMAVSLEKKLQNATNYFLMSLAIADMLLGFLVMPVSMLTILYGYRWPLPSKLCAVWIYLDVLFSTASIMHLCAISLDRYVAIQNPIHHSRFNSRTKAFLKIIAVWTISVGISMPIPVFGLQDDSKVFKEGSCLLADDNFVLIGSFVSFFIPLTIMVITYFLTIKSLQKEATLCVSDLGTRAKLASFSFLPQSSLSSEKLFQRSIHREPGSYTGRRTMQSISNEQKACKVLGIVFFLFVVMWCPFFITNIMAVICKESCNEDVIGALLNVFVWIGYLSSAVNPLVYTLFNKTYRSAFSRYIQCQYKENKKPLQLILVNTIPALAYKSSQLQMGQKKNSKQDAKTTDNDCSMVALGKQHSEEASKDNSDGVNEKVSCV
Compound,activity at the 5-HT2A receptor (5-HT2A receptor),transient anxiety during drug onset ([1]; 10 mg and 25 mg),mild and transient nausea [1],transient confusion or thought disorder [1],transient headache [1]
"CN(C)CCc1c[nH]c2ccccc12 [DMT, N,N-dimethyltryptamine]",agonists,–,–,–,–
COc1cc(CCN)cc(OC)c1OC [mescaline],agonists,–,–,–,–
CN(C)CCc1c[nH]c2cccc(OP(=O)(O)O)c12 [psilocybin],–,all patients,four,nine,four
